Experimental data: ChEMBL document CHEMBL3991601, “The target landscape of clinical kinase drugs” (Science, 2017)
Structures can show the parent of a compound that is named as a salt. The source made the active and inactive calls. For most assays here, no stated cut-off is given here; in the data, actives have a measured Kd and inactives only a lower limit.

Key:
[1] = target: Receptor-interacting serine/threonine-protein kinase 3 (Homo sapiens, UniProt Q9Y572)
[2] = target: T1, Uncharacterized protein FLJ45252 (Homo sapiens, UniProt Q6ZSR9); conditions: read-out: Kd apparent; k-562, colo 205, sk-n-be(2) and mv-4-11
T1 sequence (Q6ZSR9 whole entry): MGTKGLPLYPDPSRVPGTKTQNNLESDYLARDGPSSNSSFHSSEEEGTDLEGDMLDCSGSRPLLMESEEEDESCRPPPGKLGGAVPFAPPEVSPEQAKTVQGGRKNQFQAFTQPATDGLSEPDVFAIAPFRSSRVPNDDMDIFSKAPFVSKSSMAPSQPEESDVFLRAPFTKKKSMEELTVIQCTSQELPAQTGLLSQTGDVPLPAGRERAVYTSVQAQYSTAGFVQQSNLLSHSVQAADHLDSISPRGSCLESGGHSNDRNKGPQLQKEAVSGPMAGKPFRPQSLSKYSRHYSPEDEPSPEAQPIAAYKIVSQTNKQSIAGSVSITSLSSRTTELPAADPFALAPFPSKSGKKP

[3] = target: T2, Peroxisomal acyl-coenzyme A oxidase 3 (Homo sapiens, UniProt O15254)
T2 sequence (O15254 whole entry): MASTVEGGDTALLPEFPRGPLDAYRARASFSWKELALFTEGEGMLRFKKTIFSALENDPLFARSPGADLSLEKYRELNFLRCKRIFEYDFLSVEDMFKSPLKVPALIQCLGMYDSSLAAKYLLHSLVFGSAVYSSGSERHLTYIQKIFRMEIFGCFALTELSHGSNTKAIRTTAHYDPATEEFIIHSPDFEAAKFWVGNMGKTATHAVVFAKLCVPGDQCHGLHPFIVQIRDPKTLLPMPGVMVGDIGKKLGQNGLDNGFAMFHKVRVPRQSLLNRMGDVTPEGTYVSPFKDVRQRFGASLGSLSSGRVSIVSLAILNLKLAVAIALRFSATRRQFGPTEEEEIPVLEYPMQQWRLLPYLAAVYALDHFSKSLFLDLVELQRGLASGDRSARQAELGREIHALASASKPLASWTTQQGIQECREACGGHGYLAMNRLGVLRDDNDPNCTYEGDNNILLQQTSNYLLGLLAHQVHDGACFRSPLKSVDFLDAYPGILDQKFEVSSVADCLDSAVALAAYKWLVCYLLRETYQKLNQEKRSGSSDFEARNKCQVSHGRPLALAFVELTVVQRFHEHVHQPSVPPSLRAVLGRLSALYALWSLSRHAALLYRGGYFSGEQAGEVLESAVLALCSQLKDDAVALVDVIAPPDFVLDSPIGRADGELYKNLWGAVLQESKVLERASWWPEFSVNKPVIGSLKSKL

[4] = target: Bone morphogenetic protein receptor type-1B (Homo sapiens, UniProt O00238)
[5] = target: Mitogen-activated protein kinase kinase kinase 20 (Homo sapiens, UniProt Q9NYL2)
[6] = target: Tyrosine-protein kinase SYK (Homo sapiens, UniProt P43405)
[7] = target: Mitogen-activated protein kinase 10 (Homo sapiens, UniProt P53779)
[8] = target: T3, Serine/threonine-protein kinase TAO2 (Homo sapiens, UniProt Q9UL54)
T3 sequence (Q9UL54 whole entry): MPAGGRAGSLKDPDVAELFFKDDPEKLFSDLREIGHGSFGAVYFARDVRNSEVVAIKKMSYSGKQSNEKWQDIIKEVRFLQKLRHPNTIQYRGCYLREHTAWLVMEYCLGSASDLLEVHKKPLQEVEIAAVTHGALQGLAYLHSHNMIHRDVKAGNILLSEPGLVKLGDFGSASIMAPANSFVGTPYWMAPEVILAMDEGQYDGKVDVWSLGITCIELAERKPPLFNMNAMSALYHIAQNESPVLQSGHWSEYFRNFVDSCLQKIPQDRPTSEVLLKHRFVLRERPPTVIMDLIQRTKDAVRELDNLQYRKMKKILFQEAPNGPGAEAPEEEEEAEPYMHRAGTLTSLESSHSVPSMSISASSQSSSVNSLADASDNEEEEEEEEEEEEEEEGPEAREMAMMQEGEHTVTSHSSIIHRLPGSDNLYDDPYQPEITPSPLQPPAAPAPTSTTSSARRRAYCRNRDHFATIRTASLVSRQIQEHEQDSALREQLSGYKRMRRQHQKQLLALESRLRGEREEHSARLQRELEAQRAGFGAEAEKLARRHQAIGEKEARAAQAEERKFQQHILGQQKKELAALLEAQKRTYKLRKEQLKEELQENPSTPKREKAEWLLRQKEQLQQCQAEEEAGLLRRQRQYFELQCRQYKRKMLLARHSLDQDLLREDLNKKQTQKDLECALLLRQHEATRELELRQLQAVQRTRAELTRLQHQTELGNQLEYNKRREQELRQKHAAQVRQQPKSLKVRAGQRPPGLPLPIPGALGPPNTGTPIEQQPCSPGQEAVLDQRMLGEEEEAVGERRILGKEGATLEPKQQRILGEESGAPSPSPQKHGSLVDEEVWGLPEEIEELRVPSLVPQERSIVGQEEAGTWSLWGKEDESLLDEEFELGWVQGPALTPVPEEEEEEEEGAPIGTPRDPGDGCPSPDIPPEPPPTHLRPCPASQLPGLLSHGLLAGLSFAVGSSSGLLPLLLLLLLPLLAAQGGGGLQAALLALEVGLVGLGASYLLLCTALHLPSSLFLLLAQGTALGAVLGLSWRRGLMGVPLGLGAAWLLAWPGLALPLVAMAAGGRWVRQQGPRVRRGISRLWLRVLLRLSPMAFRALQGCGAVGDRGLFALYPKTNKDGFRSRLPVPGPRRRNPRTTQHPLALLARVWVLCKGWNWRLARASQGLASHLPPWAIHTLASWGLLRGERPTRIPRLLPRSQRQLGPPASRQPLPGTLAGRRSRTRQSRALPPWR

[9] = target: Serine/threonine-protein kinase MRCK gamma (Homo sapiens, UniProt Q6DT37)
[10] = target: Cyclin-dependent kinase 3 (Homo sapiens, UniProt Q00526)
Chain of Cyclin-dependent kinase 3 (Q00526 whole entry): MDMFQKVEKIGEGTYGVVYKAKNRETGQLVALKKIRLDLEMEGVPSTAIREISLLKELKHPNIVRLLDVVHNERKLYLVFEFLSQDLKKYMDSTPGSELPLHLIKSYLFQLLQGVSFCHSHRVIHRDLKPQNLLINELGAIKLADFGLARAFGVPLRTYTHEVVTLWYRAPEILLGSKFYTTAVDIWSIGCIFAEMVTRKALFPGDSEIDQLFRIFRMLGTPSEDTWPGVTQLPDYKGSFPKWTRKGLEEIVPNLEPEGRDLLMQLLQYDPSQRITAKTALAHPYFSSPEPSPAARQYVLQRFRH

Chain of Receptor-interacting serine/threonine-protein kinase 3 (Q9Y572 whole entry): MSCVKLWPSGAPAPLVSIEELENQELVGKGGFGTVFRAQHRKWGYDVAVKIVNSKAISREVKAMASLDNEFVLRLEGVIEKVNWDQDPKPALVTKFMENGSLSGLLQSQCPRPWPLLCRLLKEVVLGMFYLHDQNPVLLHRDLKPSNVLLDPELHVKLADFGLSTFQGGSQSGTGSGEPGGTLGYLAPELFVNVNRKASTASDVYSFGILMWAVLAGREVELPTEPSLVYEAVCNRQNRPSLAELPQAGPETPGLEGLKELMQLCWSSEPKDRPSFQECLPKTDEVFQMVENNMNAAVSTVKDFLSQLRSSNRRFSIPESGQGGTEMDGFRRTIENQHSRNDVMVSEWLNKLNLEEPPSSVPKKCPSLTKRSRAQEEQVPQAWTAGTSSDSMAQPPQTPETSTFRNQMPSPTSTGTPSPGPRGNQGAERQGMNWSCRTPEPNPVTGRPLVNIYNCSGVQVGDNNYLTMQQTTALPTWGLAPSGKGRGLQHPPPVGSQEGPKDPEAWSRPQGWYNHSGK
Chain of Mitogen-activated protein kinase 10 (P53779 whole entry): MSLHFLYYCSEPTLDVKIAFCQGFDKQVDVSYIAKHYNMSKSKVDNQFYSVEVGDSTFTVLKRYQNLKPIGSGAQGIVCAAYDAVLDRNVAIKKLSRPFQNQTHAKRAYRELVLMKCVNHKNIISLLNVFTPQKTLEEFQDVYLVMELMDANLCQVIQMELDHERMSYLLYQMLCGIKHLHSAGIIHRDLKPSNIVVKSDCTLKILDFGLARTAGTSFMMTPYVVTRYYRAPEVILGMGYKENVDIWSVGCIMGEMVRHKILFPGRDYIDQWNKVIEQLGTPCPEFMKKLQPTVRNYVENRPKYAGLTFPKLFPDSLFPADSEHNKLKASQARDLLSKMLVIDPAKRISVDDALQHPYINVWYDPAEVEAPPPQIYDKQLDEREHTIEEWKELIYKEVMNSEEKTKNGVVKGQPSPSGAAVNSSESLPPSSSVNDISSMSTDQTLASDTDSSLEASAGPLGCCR
Chain of Mitogen-activated protein kinase kinase kinase 20 (Q9NYL2 whole entry): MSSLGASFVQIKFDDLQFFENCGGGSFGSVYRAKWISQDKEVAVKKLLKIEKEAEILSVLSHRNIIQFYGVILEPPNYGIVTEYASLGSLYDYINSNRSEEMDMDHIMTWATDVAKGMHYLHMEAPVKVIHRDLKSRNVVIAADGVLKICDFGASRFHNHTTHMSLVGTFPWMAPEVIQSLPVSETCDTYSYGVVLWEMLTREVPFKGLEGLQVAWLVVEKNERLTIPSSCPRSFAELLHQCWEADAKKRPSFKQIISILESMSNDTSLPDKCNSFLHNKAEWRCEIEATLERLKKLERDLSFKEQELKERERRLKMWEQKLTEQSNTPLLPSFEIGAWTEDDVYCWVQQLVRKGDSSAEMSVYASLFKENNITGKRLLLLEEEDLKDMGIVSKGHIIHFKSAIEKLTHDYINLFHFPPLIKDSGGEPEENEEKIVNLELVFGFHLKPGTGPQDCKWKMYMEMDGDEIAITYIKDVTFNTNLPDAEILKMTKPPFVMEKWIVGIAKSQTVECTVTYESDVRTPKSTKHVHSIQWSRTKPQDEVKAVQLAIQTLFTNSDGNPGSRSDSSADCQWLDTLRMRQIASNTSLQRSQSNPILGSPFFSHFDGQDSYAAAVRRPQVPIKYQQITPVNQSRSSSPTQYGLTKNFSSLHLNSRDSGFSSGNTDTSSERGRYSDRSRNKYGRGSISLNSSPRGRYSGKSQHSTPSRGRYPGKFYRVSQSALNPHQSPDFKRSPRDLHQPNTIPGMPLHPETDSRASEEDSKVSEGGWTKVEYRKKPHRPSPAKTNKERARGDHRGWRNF
Chain of Serine/threonine-protein kinase MRCK gamma (Q6DT37 whole entry): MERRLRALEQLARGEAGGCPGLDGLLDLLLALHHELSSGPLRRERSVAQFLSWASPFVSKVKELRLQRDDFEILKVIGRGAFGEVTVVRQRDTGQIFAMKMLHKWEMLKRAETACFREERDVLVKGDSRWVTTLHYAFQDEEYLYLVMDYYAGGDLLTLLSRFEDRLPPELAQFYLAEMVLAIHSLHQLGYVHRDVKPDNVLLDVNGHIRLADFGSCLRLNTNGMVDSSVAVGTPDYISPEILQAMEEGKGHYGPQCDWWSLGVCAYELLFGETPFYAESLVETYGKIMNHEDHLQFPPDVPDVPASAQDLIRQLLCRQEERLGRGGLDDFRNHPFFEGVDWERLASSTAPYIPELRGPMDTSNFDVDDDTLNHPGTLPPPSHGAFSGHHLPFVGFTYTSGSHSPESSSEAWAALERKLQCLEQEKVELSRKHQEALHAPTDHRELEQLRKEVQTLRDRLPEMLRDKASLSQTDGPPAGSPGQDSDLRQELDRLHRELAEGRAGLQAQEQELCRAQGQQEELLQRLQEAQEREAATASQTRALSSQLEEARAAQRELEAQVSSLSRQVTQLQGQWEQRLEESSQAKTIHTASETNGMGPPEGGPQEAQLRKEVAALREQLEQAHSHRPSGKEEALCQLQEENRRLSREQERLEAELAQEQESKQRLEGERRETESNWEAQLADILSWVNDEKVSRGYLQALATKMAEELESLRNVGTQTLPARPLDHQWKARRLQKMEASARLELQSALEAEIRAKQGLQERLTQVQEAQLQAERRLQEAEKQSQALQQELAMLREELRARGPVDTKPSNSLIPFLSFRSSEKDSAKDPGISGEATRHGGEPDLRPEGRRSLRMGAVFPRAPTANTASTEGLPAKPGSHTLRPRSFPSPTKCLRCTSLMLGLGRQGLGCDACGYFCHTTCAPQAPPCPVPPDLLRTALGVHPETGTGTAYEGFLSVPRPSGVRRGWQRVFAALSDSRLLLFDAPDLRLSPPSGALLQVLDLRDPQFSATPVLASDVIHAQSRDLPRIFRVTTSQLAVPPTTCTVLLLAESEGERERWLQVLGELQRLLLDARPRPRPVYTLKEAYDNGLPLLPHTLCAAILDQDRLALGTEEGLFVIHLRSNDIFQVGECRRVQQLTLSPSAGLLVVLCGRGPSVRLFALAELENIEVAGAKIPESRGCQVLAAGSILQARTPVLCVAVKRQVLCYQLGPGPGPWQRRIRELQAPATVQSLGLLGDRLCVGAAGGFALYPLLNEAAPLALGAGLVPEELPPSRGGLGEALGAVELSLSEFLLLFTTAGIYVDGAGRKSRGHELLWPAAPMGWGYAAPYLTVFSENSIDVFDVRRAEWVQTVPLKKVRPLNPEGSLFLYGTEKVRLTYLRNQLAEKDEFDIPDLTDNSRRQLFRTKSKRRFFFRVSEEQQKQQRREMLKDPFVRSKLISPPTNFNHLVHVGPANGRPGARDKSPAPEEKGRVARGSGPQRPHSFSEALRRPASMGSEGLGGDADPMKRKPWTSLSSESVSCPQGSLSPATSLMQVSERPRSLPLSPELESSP
Chain of Bone morphogenetic protein receptor type-1B (O00238 whole entry): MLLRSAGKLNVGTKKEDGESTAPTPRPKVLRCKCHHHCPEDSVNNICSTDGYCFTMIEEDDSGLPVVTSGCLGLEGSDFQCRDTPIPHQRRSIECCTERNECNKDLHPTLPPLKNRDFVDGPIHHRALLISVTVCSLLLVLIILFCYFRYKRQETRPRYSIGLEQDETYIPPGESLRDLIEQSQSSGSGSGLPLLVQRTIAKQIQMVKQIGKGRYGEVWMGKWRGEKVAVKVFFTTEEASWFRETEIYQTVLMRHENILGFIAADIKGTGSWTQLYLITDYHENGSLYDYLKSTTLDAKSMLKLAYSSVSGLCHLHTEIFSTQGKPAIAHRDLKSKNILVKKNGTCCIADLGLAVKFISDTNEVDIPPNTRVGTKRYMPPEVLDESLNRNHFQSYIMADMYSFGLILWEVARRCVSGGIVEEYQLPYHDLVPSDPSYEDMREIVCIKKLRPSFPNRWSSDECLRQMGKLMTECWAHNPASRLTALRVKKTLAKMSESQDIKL

SMILES	Kd [1]	Kd [2]	Kd [3]	Kd [4]	Kd [5]	Kd [6]	Kd [7]	Kd [8]	Kd [9]	Kd [10]
Cn1cc(C2=C(c3cn(C4CCN(Cc5ccccn5)CC4)c4ccccc34)C(=O)NC2=O)c2ccccc21 [ENZASTAURIN]	> 30 µM (inactive)	> 30 µM (inactive)	> 30 µM (inactive)							
CC(C)(C)c1nc(-c2cccc(NS(=O)(=O)c3c(F)cccc3F)c2F)c(-c2ccnc(N)n2)s1 [DABRAFENIB]	0.283 µM (active)	> 30 µM (inactive)	> 30 µM (inactive)	> 30 µM (inactive)	0.184 µM (active)	> 30 µM (inactive)	> 30 µM (inactive)	> 30 µM (inactive)	> 30 µM (inactive)	
CCn1cc(-c2ccnc3[nH]c(-c4cccc(CN(C)C)c4)cc23)c(-c2ccc(NC(=O)N(C)C)cc2)n1 [GSK-1070916]	> 30 µM (inactive)		> 30 µM (inactive)		> 30 µM (inactive)	> 30 µM (inactive)	> 30 µM (inactive)			> 30 µM (inactive)
C[C@@H](N)c1ccc(C(=O)Nc2ccnc3[nH]ccc23)cc1 [Y-39983]	> 30 µM (inactive)	0.106 µM (active)	> 30 µM (inactive)	> 30 µM (inactive)	> 30 µM (inactive)	> 30 µM (inactive)	> 30 µM (inactive)	> 30 µM (inactive)		> 30 µM (inactive)
N#CC1(c2ccc(NC(=O)c3cccnc3NCc3ccncc3)cc2)CCCC1 [RIVOCERANIB]	2.37 µM (active)	> 30 µM (inactive)	> 30 µM (inactive)	> 30 µM (inactive)	4.76 µM (active)	> 30 µM (inactive)	> 30 µM (inactive)	> 30 µM (inactive)	> 30 µM (inactive)	
CCNC(=O)C#Cc1ccc2c(c1)NC(=O)/C2=C(\Nc1ccc(CN(C)C)cc1)c1ccccc1	> 30 µM (inactive)	> 30 µM (inactive)	> 30 µM (inactive)	> 30 µM (inactive)	> 30 µM (inactive)	> 30 µM (inactive)	> 30 µM (inactive)	> 30 µM (inactive)		0.897 µM (active)
CC(C)c1cc(CNc2nc(Nc3cc(C4CC4)[nH]n3)cc(N3CCN(C)CC3)n2)on1 [XL-228]	> 30 µM (inactive)		> 30 µM (inactive)		> 30 µM (inactive)	> 30 µM (inactive)	> 30 µM (inactive)	> 30 µM (inactive)		0.429 µM
COc1cc(Nc2ncc3c(n2)-c2ccc(Cl)cc2C(c2c(F)cccc2OC)=NC3)ccc1C(=O)O [ALISERTIB]	> 30 µM (inactive)	> 30 µM (inactive)	> 30 µM (inactive)	> 30 µM (inactive)			> 30 µM (inactive)	> 30 µM (inactive)	> 30 µM (inactive)	> 30 µM (inactive)
N#CC[C@H](C1CCCC1)n1cc(-c2ncnc3[nH]ccc23)cn1 [RUXOLITINIB]	> 30 µM (inactive)	0.196 µM (active)	> 30 µM (inactive)							
CCS(=O)(=O)N1CCN(c2ccc(Nc3ncc(C(N)=O)c(NC4CC4)n3)cc2)CC1 [Cerdulatinib Hydrochloride]	> 30 µM (inactive)	0.0007 µM (active)	> 30 µM (inactive)	> 30 µM (inactive)	> 30 µM (inactive)	0.44 µM (active)		2.22 µM (active)	> 30 µM (inactive)	> 30 µM (inactive)
CNC(=O)c1nn(C)c2c1C(C)(C)Cc1cnc(Nc3ccc(N4CCN(C)CC4)cc3)nc1-2 [MILCICLIB]	> 30 µM (inactive)		> 30 µM (inactive)	> 30 µM (inactive)	> 30 µM (inactive)	> 30 µM (inactive)		5.25 µM (active)	> 30 µM (inactive)	> 30 µM (inactive)
CC(=O)NCC(=O)N1[C@@H]2CC[C@H]1c1ccc(Nc3ncc(C(F)(F)F)c(NC4CCC4)n3)cc12 [PF-03814735]	> 30 µM (inactive)	0.01 µM (active)	> 30 µM (inactive)	> 30 µM (inactive)			> 30 µM (inactive)	2.05 µM (active)	> 30 µM (inactive)	1.53 µM (active)
CCCCCCCCCCCCCCCCCCOP(=O)([O-])OC1CC[N+](C)(C)CC1 [PERIFOSINE]	> 30 µM (inactive)	> 30 µM (inactive)	> 30 µM (inactive)	> 30 µM (inactive)	> 30 µM (inactive)	> 30 µM (inactive)	> 30 µM (inactive)	> 30 µM (inactive)		> 30 µM (inactive)
Cc1[nH]c(/C=C2\C(=O)Nc3ccccc32)c(C)c1CCC(=O)O [ORANTINIB]	> 30 µM (inactive)	1.18 µM (active)	> 30 µM (inactive)	> 30 µM (inactive)				> 30 µM (inactive)	> 30 µM (inactive)	> 30 µM (inactive)
COCc1c(-c2ccc(NC(=O)Nc3cc(C(F)(F)F)ccc3F)c(F)c2)c2c(N)ncnn2c1CN1CCOCC1	> 30 µM (inactive)	> 30 µM (inactive)	> 30 µM (inactive)	> 30 µM (inactive)	> 30 µM (inactive)	> 30 µM (inactive)	> 30 µM (inactive)	> 30 µM (inactive)		> 30 µM (inactive)
CNC(=O)c1ccccc1Sc1ccc2c(/C=C/c3ccccn3)n[nH]c2c1 [AXITINIB]	> 30 µM (inactive)	2.3 µM (active)	> 30 µM (inactive)							
C[C@@H](Oc1cc(-n2cnc3ccc(CN4CCN(C)CC4)cc32)sc1C(N)=O)c1ccccc1C(F)(F)F [GSK-461364]	> 30 µM (inactive)	> 30 µM (inactive)	> 30 µM (inactive)							
O=C(NOCCO)c1cc(CN2OCCCC2=O)c(F)c(F)c1Nc1ccc(I)cc1F [RO-4987655]	> 30 µM (inactive)	> 30 µM (inactive)	> 30 µM (inactive)							
NC(=O)c1c(OCc2c(F)cc(Br)cc2F)nsc1NC(=O)NCCCCN1CCCC1 [OSI-632]	> 30 µM (inactive)	> 30 µM (inactive)	> 30 µM (inactive)	> 30 µM (inactive)			> 30 µM (inactive)	> 30 µM (inactive)	> 30 µM (inactive)	> 30 µM (inactive)
